In patent US12304890B2, “R-type pyridyloxycarboxylic acid, salt and ester derivative thereof, and preparation method therefor, and herbicidal composition and application thereof” (Qingdao Kingagroot Chemical Compound Co., Ltd., priority 2018, dated 2025):

Tests used:
Type in all cases: in vivo
[1] = system: Echinochloa crusgalli; assay: Post-emergence test experiment, Echinochloa crusgalli; settings: for Activity level (growth inhibition rate), Echinochloa crusgalli: 1000 g a.i./ha, 3 weeks in greenhouse, fresh weight inhibition
Method: (§1) The above described growth inhibition rate is fresh weight inhibition rate.
(§2) Post-emergence test experiment: Monocotyledonous and dicotyledonous weed seeds and main crop seeds (i. e. wheat, corn, rice, soybean, cotton, oilseed, millet and sorghum.) were put into a plastic pot loaded with soil. Then covered with 0.5-2 cm soil, the seeds were allowed to grow in good greenhouse environment. The test plants were treated at 2-3 leaf stage 2 weeks after sowing. The test compounds of the invention were dissolved with acetone respectively, then added with tween-80, and using 1.5 liters per hectare of an emulsible concentrate of methyl oleate as a synergist, and diluted by certain amount of water to certain concentration. The solution was sprayed to the plants with a sprayer. Then the plants were cultured for 3 weeks in the greenhouse, and the experiment result of weed controlling effect was listed in tables 4-5.

[2] = system: Digitaria sanguinalis; assay: Post-emergence test experiment, Digitaria sanguinalis; settings: 1000 g a.i./ha, 3 weeks in greenhouse, fresh weight inhibition
Method: as §1, §2

[3] = system: Monocotyledonous and dicotyledonous weed seeds and main crop seeds; assay: Post-emergence test experiment, other weeds and crops (Table 4, 1000 g a.i./ha); settings: 3 weeks in greenhouse, fresh weight inhibition
Method: as §1
as §2, with “sprayer.” for “sprayer. Then the plants were cultured for 3 weeks in the greenhouse, and the experiment result of weed controlling effect was listed in tables 4-5.”

| SMILES | Activity level (growth inhibition rate), Echinochloa crusgalli [1] | Activity level (growth inhibition rate), Digitaria sanguinalis [2] | Activity level (growth inhibition rate), Abutilon theophrasti Medic. [3] | Activity level (growth inhibition rate), Galium aparine [3] | Activity level (growth inhibition rate), Monochoria Vaginalis [3] | inhibition at 200 g/ha ([1]; Echinochloa crus-galli, 504 h, 200 g a.i./ha, 3 weeks, weed resistant to ALS inhibitor and ACCe herbicides, read-out: Echinochloa crusgalli, activity level (growth inhibition rate)) [%] |
| --- | --- | --- | --- | --- | --- | --- |
| CCCCCCCCCOC(=O)[C@@H](C)Oc1nc(F)c(Cl)c(N)c1Cl [Compound 2-175] | 5 (Level 5: the growth inhibition rate is greater than 85%) | 5 (Level 5: the growth inhibition rate is greater than 85%) | 5 (Level 5: the growth inhibition rate is greater than 85%) | 5 (Level 5: the growth inhibition rate is greater than 85%) | 5 (Level 5: the growth inhibition rate is greater than 85%) | – |
| C=CCOC(=O)C(C)Oc1nc(F)c(Cl)c(N)c1Cl (stereo not drawn) [Compound 2-273] | 5 (Level 5: the growth inhibition rate is greater than 85%) | 5 (Level 5: the growth inhibition rate is greater than 85%) | 5 (Level 5: the growth inhibition rate is greater than 85%) | 5 (Level 5: the growth inhibition rate is greater than 85%) | 5 (Level 5: the growth inhibition rate is greater than 85%) | – |
| CC(Oc1nc(F)c(Cl)c(N)c1Cl)C(=O)OC1CCC1 (stereo not drawn) [Compound 2-264] | 5 (Level 5: the growth inhibition rate is greater than 85%) | 5 (Level 5: the growth inhibition rate is greater than 85%) | 5 (Level 5: the growth inhibition rate is greater than 85%) | 5 (Level 5: the growth inhibition rate is greater than 85%) | 5 (Level 5: the growth inhibition rate is greater than 85%) | – |
| C[C@@H](Oc1nc(F)c(Cl)c(N)c1Cl)C(=O)OCc1ccnn1C [Compound 2-353] | 5 (Level 5: the growth inhibition rate is greater than 85%) | 5 (Level 5: the growth inhibition rate is greater than 85%) | 5 (Level 5: the growth inhibition rate is greater than 85%) | 5 (Level 5: the growth inhibition rate is greater than 85%) | 5 (Level 5: the growth inhibition rate is greater than 85%) | – |
| C[C@H](Oc1nc(F)c(Cl)c(N)c1Cl)C(=O)OCC1CCCO1 (stereo partly drawn) [reference compound] | – | – | – | – | – | 5 to 20 |
| COC(=O)[C@@H](Oc1nc(F)c(Cl)c(N)c1Cl)c1nc(Cl)cs1 [Compound 2-67] | – | – | 5 (Level 5: the growth inhibition rate is greater than 85%) | 5 (Level 5: the growth inhibition rate is greater than 85%) | 5 (Level 5: the growth inhibition rate is greater than 85%) | – |
| COC(=O)[C@H](Oc1nc(F)c(Cl)c(N)c1Cl)c1[nH]ncc1F [Compound 2-68] | – | – | 5 (Level 5: the growth inhibition rate is greater than 85%) | 5 (Level 5: the growth inhibition rate is greater than 85%) | 5 (Level 5: the growth inhibition rate is greater than 85%) | – |
| COC(=O)C(CN(C)C)Oc1nc(F)c(Cl)c(N)c1Cl (stereo not drawn) [Compound 2-59] | – | – | 5 (Level 5: the growth inhibition rate is greater than 85%) | 5 (Level 5: the growth inhibition rate is greater than 85%) | 5 (Level 5: the growth inhibition rate is greater than 85%) | – |
| COC(=O)C(CF)Oc1nc(F)c(Cl)c(N)c1Cl (stereo not drawn) [Compound 2-43] | – | – | 5 (Level 5: the growth inhibition rate is greater than 85%) | 5 (Level 5: the growth inhibition rate is greater than 85%) | 5 (Level 5: the growth inhibition rate is greater than 85%) | – |
| COC(=O)C(Oc1nc(F)c(Cl)c(N)c1Cl)C1CC1 (stereo not drawn) [Compound 2-38] | – | – | 5 (Level 5: the growth inhibition rate is greater than 85%) | 5 (Level 5: the growth inhibition rate is greater than 85%) | 5 (Level 5: the growth inhibition rate is greater than 85%) | – |
| COC(=O)C(C=O)Oc1nc(F)c(Cl)c(N)c1Cl (stereo not drawn) [Compound 2-48] | – | – | 5 (Level 5: the growth inhibition rate is greater than 85%) | 5 (Level 5: the growth inhibition rate is greater than 85%) | 5 (Level 5: the growth inhibition rate is greater than 85%) | – |
| Nc1c(Cl)c(F)nc(O[C@@H](C(=O)[O-])c2ccccc2)c1Cl.[Na+] [Compound 2-1] | – | – | 5 (Level 5: the growth inhibition rate is greater than 85%) | 5 (Level 5: the growth inhibition rate is greater than 85%) | 5 (Level 5: the growth inhibition rate is greater than 85%) | – |
| COC(=O)C(F)Oc1nc(F)c(Cl)c(N)c1Cl (stereo not drawn) [Compound 2-51] | – | – | 5 (Level 5: the growth inhibition rate is greater than 85%) | 5 (Level 5: the growth inhibition rate is greater than 85%) | 5 (Level 5: the growth inhibition rate is greater than 85%) | – |
| COC(=O)C(Oc1nc(F)c(Cl)c(N)c1Cl)C(=O)OC [Compound 2-47] | – | – | 5 (Level 5: the growth inhibition rate is greater than 85%) | 5 (Level 5: the growth inhibition rate is greater than 85%) | 5 (Level 5: the growth inhibition rate is greater than 85%) | – |
| NCc1ccccc1 [Compound 2-9, benzylamine] | – | – | 5 (Level 5: the growth inhibition rate is greater than 85%) | 5 (Level 5: the growth inhibition rate is greater than 85%) | 5 (Level 5: the growth inhibition rate is greater than 85%) | – |
| NCCNCCNCCN [Compound 2-18, triethylenetetramine] | – | – | 5 (Level 5: the growth inhibition rate is greater than 85%) | 5 (Level 5: the growth inhibition rate is greater than 85%) | 5 (Level 5: the growth inhibition rate is greater than 85%) | – |
